From the supplement of paper PMC11451515

How the values were obtained:
Assay in all cases: AUC of viability dose-response curve (% viability x log10 dose units); higher = less sensitive
Conditions in all cases: 48 h
NOMO1 = test system: NOMO1
Summary of the method: (§1)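 In 1536-well plates, leukemia cells adapted to each medium (500 or 1000 cells/well) were exposed for 48 h at 37°C to library compounds in DMSO across 11 threefold doses, 47 μM down to 0.79 nM. Viability was read by CellTiter-Glo One luminescence and normalised per plate to DMSO and cell-free wells. A four-parameter log-logistic fit over log10 doses was integrated by trapezoidal rule. This yielded the area under the curve, with over-full-viability curves scaled and quality-control failures dropped.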

P12-Ichikawa = test system: P12-Ichikawa
Summary of the method: as §1

SEM cells = test system: SEM cells
Summary of the method: as §1

[1] = RPMI 5 mM glucose + 10% dialyzed FBS

SMILES | AUC of viability dose-response curve (NOMO1; HPLM + 10% dialyzed FBS) | AUC of viability dose-response curve (NOMO1; RPMI 5 mM glucose + 10% FBS) | AUC of viability dose-response curve (NOMO1; [1]) | AUC of viability dose-response curve (P12-Ichikawa; HPLM + 10% dialyzed FBS) | AUC of viability dose-response curve (P12-Ichikawa; RPMI 5 mM glucose + 10% FBS) | AUC of viability dose-response curve (P12-Ichikawa; [1]) | AUC of viability dose-response curve (SEM cells; HPLM + 10% dialyzed FBS) | AUC of viability dose-response curve (SEM cells; RPMI 5 mM glucose + 10% FBS) | AUC of viability dose-response curve (SEM cells; [1])
Cn1cc(-c2cnn3c(N)c(Br)c([C@@H]4CCCNC4)nc23)cn1 | 352 | 322 | 314 | 358 | 342 | 339 | 300 | 344 | 289
CCCCOc1ccc(CC(=O)NO)cc1 | 417 | 459 | 439 | 464 | 457 | 454 | 440 | 463 | 458
O=C(O)c1ccc(-c2c[nH]c3ncc(-c4ccccc4)cc23)cc1C1CCCC1 | 466 | 471 | 468 | 458 | 453 | 450 | 435 | 404 | 400
CN1CC/C(CC1)=C3\c4ccccc4CC(=O)c2sccc23 | 462 | 463 | 463 | 472 | 467 | 470 | 460 | 472 | 473
CN1/C=C(\N=C(NC2=CC=C(C=C2)C(=O)N3CCOCC3)/C1=O)/C4=C(C)C(=CC=C4)NC(=O)C5=CC=C(C=C5)C(C)(C)C | 466 | 430 | 454 | 458 | 466 | 467 | 468 | 443 | 458
CCOc1cc(/C=C2/C(=O)N(c3ccccc3)N=C2C)cc(Cl)c1OCC(=O)OC | 432 | 413 | 425 | 424 | 408 | 418 | 386 | 422 | 383
NCCCC(O)(P(=O)(O)O)P(=O)(O)O.O.O.O.[Na+] | 416 | 439 | 456 | 395 | 421 | 398 | 402 | 366 | 382
COC1=CC(=CC=C1)C2=CC=C(NC(=O)/C3=C(/CCC3)C(O)=O)C(=C2)F | 428 | 469 | 457 | 444 | 436 | 431 | 465 | 461 | 447
O=C(Nc1ccc([N+](=O)[O-])cc1Cl)c1cc(Cl)ccc1O | 375 | 363 | 372 | 386 | 368 | 335 | 369 | 336 | 370
NCCCCCC(=O)O | 469 | 459 | 447 | 463 | 469 | 463 | 398 | 459 | 389
O=C(C[C@@H]1C/C=C\CCC(=O)O[C@H](c2ccccc2)CNC1=O)NCc1ccc(Cl)cc1 | 473 | 471 | 465 | 452 | 447 | 457 | 437 | 415 | 436
CO[C@@H]1[C@@H](OC(N)=O)[C@@H](O)[C@H](OC2=CC=C3\C(=C(NC(=O)C4=CC=C([O-])C(=C4)CC=C(C)C)/C(=O)OC3=C2C)O)OC1(C)C | 437 | 451 | 437 | 449 | 465 | 464 | 476 | 445 | 461
CC(=O)Oc1cc2c(s1)CCN(C(C(=O)C1CC1)c1ccccc1F)C2.Cl (stereo unspecified) | 386 | 396 | 396 | 468 | 455 | 452 | 466 | 431 | 453
CN(C)/[N+]([O-])=N/Oc1cc(ON[N+](=O)N2CCN(C(=O)c3cc(Cc4n[nH]c(=O)c5ccccc45)ccc3F)CC2)c([N+](=O)[O-])cc1[N+](=O)[O-] | 438 | 460 | 441 | 467 | 469 | 466 | 444 | 446 | 448
O=P1(N(CCCl)CCCl)NCCCO1 (stereo unspecified) | 416 | 436 | 430 | 409 | 424 | 448 | 413 | 405 | 406
C[N]1N=CC2=C1C=C(C(=C2)OC3=CC=C(NC(=O)\C4=C\C=C(\C)N(C4=O)C5=CC=C(F)C=C5)C=C3F)C6=C[NH]N=C6 | 401 | 410 | 413 | 396 | 397 | 404 | 268 | 266 | 255
CCC[C@@H](C=O)NC(=O)[C@H](CC(C)C)NC(=O)[C@H](CC(C)C)NC(=O)OCc1ccccc1 | 348 | 334 | 359 | 366 | 359 | 367 | 356 | 296 | 337
CC[C@H](NC(C)C)[C@H](O)c1ccc(O)c2[nH]c(=O)ccc12 | 470 | 447 | 463 | 451 | 462 | 456 | 442 | 472 | 474
CCc1ccc(C(=O)Nc2cc(CN3CCN(C)CC3)cc(C(F)(F)F)c2)cc1C#Cc1cnc2ccnn2c1 | 459 | 460 | 477 | 459 | 454 | 415 | 449 | 453 | 451
CCCc1nc2c(C)cc(-c3nc4ccccc4n3C)cc2n1Cc1ccc(-c2ccccc2C(=O)O)cc1 | 446 | 463 | 465 | 470 | 382 | 465 | 456 | 463 | 472
CC1(C)Cc2c(sc(NC(=S)NC(=O)c3ccccc3)c2C(=O)O)CO1 | 466 | 456 | 458 | 469 | 476 | 470 | 452 | 474 | 427
CN(c1nccc(=O)[nH]1)C1CCN(c2nc3ccccc3n2Cc2ccc(F)cc2)CC1 | 466 | 459 | 471 | 466 | 460 | 462 | 474 | 424 | 473
Cn1c(=O)c2[nH]cnc2n(C)c1=O | 464 | 454 | 457 | 473 | 463 | 468 | 474 | 454 | 477
C/C(=C\c1csc(C)n1)[C@@H]1C[C@@H]2O[C@]2(C)CCC[C@H](C)[C@H](O)[C@@H](C)C(=O)C(C)(C)[C@@H](O)CC(=O)O1 | 138 | 82 | 114 | 139 | 120 | 184 | 104 | 74.6 | 95.4
